Measurements reported in paper PMC12406255, “Engineering Peptide Modulators for T‑Cell Migration by Structural Scaffold Matching” (Journal of Medicinal Chemistry, 2025).
Read-outs that look alike come from different tables or passages of the source. Positions of bridges follow the written chain, without caps; N, C: chain ends. Non-standard residues stand in square brackets, D forms with d. Residues, ends and D or L forms follow the SMILES beside them. Nle = CCCC[C@H](N)C(=O)O

Columns and labels:
Format in all cases: cell-based, human
[1] = system: CD4+ cells of MS patients; experiment: Transwell migration assay with PBMC of MS patients, CD4+ cells; conditions: PBMC of treatment-naive MS patients; p = 0.0005
Description: 5 Activity of the novel VhTI-pep 2 and pepitem on patient lymphocytes. PPBMCs were isolated from the blood of MS patients with a very recent disease flare receiving no immunosuppressive or immunomodulatory treatment in the past. The effect of the linear pepitem and VhTI-pep 2 was tested for the T-cell populations (A) CD3^+, (B) Th1, (C) CD4^+, (D) memory CD4^+, (E) CD8^+, and (F) memory CD8^+ cells. Data are shown as mean ± SD for 4 independent measurements. Statistical analysis was performed on the level of total counted cells using repeated measures one-way ANOVA with Dunnett’s post hoc test. Statistical significance is indicated as n.s. (not significant), * p < 0.05; ** p < 0.01; *** p < 0.001.
Human microvascular endothelial cells (HMEC-1 cells, Cytion, Eppelheim, Germany) were cultured in MCDB-131 medium (with 2.2 g/L sodium bicarbonate, without L-glutamine, PAN-Biotech Aidenbach, Germany) supplemented with 10% fetal bovine serum (FBS, Capricorn Scientific, Ebsdorfergrund, Germany), 100 units/ml penicillin-streptomycin (Sigma-Aldrich) 10 ng/mL epidermal growth factor (BioLegend, San Diego, US), 1 μg/mL hydrocortisone (Sigma-Aldrich), and 10 mM L-glutamine (Sigma-Aldrich). For experiments, the cells were used between passage numbers 4–9. […]

[2] = system: CD8+ lymphocytes (CD3+, CD8+); conditions: for % Inhibition of cell migration compared to control, CD8+: normalized to untreated control, mean ± SEM of 4-6 experiments
[3] = system: memory CD8+ cells (CD3+, CD8+, CD45RO+); conditions: for % Inhibition of cell migration compared to control, Memory CD8+: normalized to untreated control, mean ± SEM of 4-6 experiments

With `CCCC[C@@H]1NC(=O)[C@H](C(C)C)NC(=O)[C@H](CCCCN)NC(=O)[C@@H](NC(=O)[C@H](CCC(N)=O)NC(=O)[C@H](CCC(=O)O)NC(C)=O)CSSC[C@@H](C(=O)N[C@@H](CCC(=O)O)C(=O)N[C@@H](CCCCN)C(N)=O)NC(=O)[C@H](CC(N)=O)NC(=O)[C@H](CC(=O)O)NC(=O)[C@H](CC(C)C)NC(=O)[C@@H]2CSSC[C@H](NC1=O)C(=O)N[C@@H](Cc1ccc(O)cc1)C(=O)N[C@@H](C)C(=O)N[C@@H](CCC(N)=O)C(=O)NCC(=O)N[C@@H](C)C(=O)N[C@@H](CCC(=O)O)C(=O)N[C@@H](CC(C)C)C(=O)N1CCC[C@H]1C(=O)N[C@@H](CCC(=O)O)C(=O)N[C@@H](CC(C)C)C(=O)N[C@@H](CC(C)C)C(=O)N[C@@H](CCCNC(=N)N)C(=O)N[C@@H](CCCNC(=N)N)C(=O)N2` [VhTI-pep 2] (Ac-EQCKV[Nle]CYAQGAELPELLRRCLDNCEK-NH2; disulfide 3-25, 7-21) the “migration of CD4+ cells of MS patients (in words)” value [1] was “significantly reduced”, the “% Inhibition of cell migration compared to control, CD8+” value ([2]; 0.1 μM) was 37.0 ± 6.4% and the “% Inhibition of cell migration compared to control, CD8+” value ([2]; 1 μM) was 41.7 ± 8.5%. For the same compound, the EC50 ([2]; EC monolayer pretreated with peptide, healthy-donor PBMC, 4 h, mean ± SD, 4 independent measurements, read-out: EC50, inhibition of CD8+ cell migration) was 7.7 ± 11.4 nM, the “maximal effect of inhibition of cell migration, CD8+ lymphocytes” value ([2]; from the concentration-response experiment) was 40.0 ± 2.8% and the “% Inhibition of cell migration compared to control, Memory CD8+” value ([3]; 0.1 μM) was 23.0 ± 6.9%. For the same compound, the “% Inhibition of cell migration compared to control, Memory CD8+” value ([3]; 1 μM) was 21.9 ± 8.1% and the EC50 ([3]; EC monolayer pretreated with peptide, healthy-donor PBMC, 4 h, mean ± SD, 4 independent measurements, read-out: EC50, inhibition of memory CD8+ cell migration) was 6.3 ± 9.7 nM.
